Consider one compound from US8653132B2, “Phosphaplatins and their use in pharmaceutical compositions” (Ohio University, priority 2007, dated 2014).

Molecules are shown by their SMILES. Like-named read-outs stand apart in the source and are kept apart here.

Test [1] has as its system CHO cell line. Description: Cytotoxic assay, CHO. Format: cell-based. From the text:
In some embodiments, the complexes of the present invention are useful for treating various cancers. […] The complexes of the present invention are particularly desirable because they may have reduced toxicity in vivo.

The test system of test [2] is synthetic 25-mer oligonucleotide (SEQ ID NO:1). Description: Platinum-DNA binding by NMR, 25-mer oligonucleotide. Particulars: 1H NMR, identical conditions for both complexes. The method, then:
(§1) In the associated experiment, dach-2 was allowed to react with double-stranded calf-thymus DNA, a synthetic oligonucleotide (5′-[…]-3′; SEQ ID NO:1), a dinucleotide (dGpG), and nucleotide monophosphates (5′-dGMP and 5′-dAMP) at concentrations as much as 250-times higher than those of cellular doses. The extent of DNA binding was monitored by ^1H NMR spectroscopy. In parallel, similar reactions with cisplatin were conducted under identical conditions.
(§2) Proton NMR spectroscopic experiments were conducted on a Bruker 500 MHz NMR instrument in 99% (atom) D2O with a water suppression pulse sequence. Samples contained cisplatin (2.0 mM) or pyrodach-2 (2.0 mM) and nucleotides (5′-dGMP, 5′-dAMP, dGpG (5.0 mM)), and, single- and double stranded DNA (calf thymus, 5.0 mM) at pH 7.0 maintained by phosphate and carbonate buffers (10-20 mM). Reactions of cisplatin (0.25 mM) and pyrodach-2 (0.25 mM) with a synthetic 25-mer: 5′-[…]-3′ (SEQ ID NO: 1) (0.25 mM) were also performed under identical conditions. Reactions were carried out up to 7 days, and ^1H and ^31P NMR spectra were recorded at regular time intervals. Usually, a pulse width of 5 μs with a 1.0 s repetition delay was used for the measurements. Typically, a sweepwidth of 10,000 Hz and 32 K data points were selected to collect the Free Induction Decays. A line broadening factor of 1 Hz was for applied Fourier transformation. […]

Test [3] concerns guanine base. Description: Guanine base binding by proton NMR. The note with it: cisplatin after 48 hours, am-2 96 hours, dach-2 106 hours. How it is done:
FIG. 12 is a comparison of guanine base binding (the predominant DNA binding site of cisplatin) among cisplatin (bottom), am-2 (middle), and dach-2 (top) by proton NMR spectroscopy. […] The bottom spectrum was recorded after 48 hours. The middle and top spectra were recorded after 96 and 106 hours, respectively.
Proton NMR spectroscopic experiments were conducted on a Bruker 500 MHz NMR instrument in 99% (atom) D2O with a water suppression pulse sequence. Samples contained cisplatin (2.0 mM) or pyrodach-2 (2.0 mM) and nucleotides (5′-dGMP, 5′-dAMP, dGpG (5.0 mM)), and, single- and double stranded DNA (calf thymus, 5.0 mM) at pH 7.0 maintained by phosphate and carbonate buffers (10-20 mM). Reactions of cisplatin (0.25 mM) and pyrodach-2 (0.25 mM) with a synthetic 25-mer: 5′-[…]-3′ (SEQ ID NO: 1) (0.25 mM) were also performed under identical conditions. Reactions were carried out up to 7 days, and ^1H and ^31P NMR spectra were recorded at regular time intervals. Usually, a pulse width of 5 μs with a 1.0 s repetition delay was used for the measurements. Typically, a sweepwidth of 10,000 Hz and 32 K data points were selected to collect the Free Induction Decays. A line broadening factor of 1 Hz was for applied Fourier transformation. The chemical shifts, with reference to H—O-D peak, are at 4.67 ppm.

The subject of test [4] is calf-thymus DNA, oligonucleotide, dGpG, 5'-dGMP and 5'-dAMP. Description: Platinum binding to DNA and nucleotides by NMR. Particulars: 1H NMR, up to seven days. The method, then:
as §1, §2

Test [5] relates to UMSCC10b/15s (Cisplatin-resistant) cells. Description: Cytotoxicity in head and neck cancer cells, cisplatin-resistant. Format: cell-based, human. How it is done:
The UMSCC10b (Cisplatin-sensitive) and UMSCC10b/15s (Cisplatin-resistant) cell lines derived from human head and neck squamous cell cancer were lines were obtained from Dr. Stephen B. Howell of the University of California, Dan Diego. Cells were cultured in 1640 RPMI with 10% fetal bovine serum, 100 units/ml penicillin and 100 μg/m1 of streptomycin. Cells were seeded into 24-well plates with approximately 20,000 cells/500 μl of media in each well plate. Cells were exposed to dach-2 with variable concentrations ranging from 1.12 μM to maximum of 72 μM. Stock solutions of dach-2 complex were prepared and aliquots of these solutions were added to make those effective concentrations. Cells were then allowed to grow for 72 hours. Twelve different concentrations were used in this study. Each concentration had one control for a total of 12 controls.

Test [6] has as its system BAX. Description: Apoptotic gene array, real-time PCR: BAX. Format: cell-based. Particulars: preliminary. The method, then:
(§3) Preliminary gene expression experiments involving complexes of the present invention as compared to cisplatin (data not shown) were carried out with an apoptotic array containing 84 genes that includes the BCL2 superfamily, both pro- and anti-apoptotic, caspases, the BIR-family, TNF receptor […] factors, p53 and its congeners, and fas associated members by real-time PCR. A closer look at the two sets of gene expressions clearly indicates a number of differences in the expression patterns. […] Specifically, fas was over-expressed by 6-fold compared to the control, and TNFRS genes such as TNFRSF-10B was overexpressed by 2-3 folds over controls. These latter receptor factors belong to the fas superfamily.
(Real-time PCR tracks product formation cycle by cycle.)

Test [7] has as its system DNA of A2780 cells. Description: DNA-bound platinum in cells by atomic absorption. Format: cell-based, human. Particulars: up to 50 micromolar, treated up to 24 hours. How it is done: For DNA-Pt measurements, 1.0×10^7 cells were seeded in T75 cm^2 flasks. After 24 hr, the platinum complexes were added at the different concentrations 0, 10, 20, 30 and 50 μM. Cells were treated with the platinum complexes for 24 hours. Following treatment, the medium was removed and cells were washed with ice-cold PBS. The cells were trypsinized and centrifuged into a pellet. DNA was extracted using a Wizard® SV DNA purification kit (Promega). The DNA was quantitatively estimated from the absorption at 260 nm using a NanoDrop UV-Vis instrument.

The subject of test [8] is BAK1. Description: Apoptotic gene array, real-time PCR: BAK1. Format: cell-based. The note with it: preliminary. How it is done:
as §3

In test [9] the test system is A2780/C30 cisplatin-resistant ovarian cell line. Description: Clonogenic assay, cisplatin/carboplatin-resistant C30. The format is cell-based, human. The note with it: 1 hour drug treatment, 1 week colony formation. The method, then:
A cisplatin-resistant Ovarian cell line (C30) (Hamaguchi, et al., 1993), obtained from Dr. Thomas Hamilton (Fox Chase Cancer Center, Philadelphia, Pa.), was treated with the monomeric platinum complexes of the present invention (shown in FIG. 2). This cell line is also cross resistant to carboplatin. Cells were cultured on monolayer using RPMI 1640 supplemented with 10% fetal bovine serum, 2 mM glutamine, 0.25 units/mL insulin and penicillin/streptomycin in a 37 degrees C. incubator continuously gassed with 5% CO2. Cells were subcultured using 0.025% trypsin in HBSS to maintain cells in exponential growth.
IC50 values were determined using a clonogenic assay. Briefly, 500 C30 cells from a single cell suspension were plated onto 60 mm Petri plates 24 hours before drug treatment to permit cell attachment. On the day of drug treatment, the medium was decanted and replaced with the drug and these treated cells were placed back into the 37 degrees C. incubator for 1 hour. Triplicate plates were set up for each drug concentration. After the one hour drug treatment, the drug containing medium was decanted and replaced with fresh medium. These plates were returned to the 37 degrees C. incubator for 1 week for colony formation. Colonies were fixed and stained using 2% crystal violet in absolute methanol. Colonies containing more than 50 cells were scored. The number of scored colonies from the triplicate plates was averaged and this number was divided by the number of cells plated to obtain a value for the fraction of cells forming colonies. These values for fraction of cells forming colonies were then corrected for plating efficiency by dividing them by the number of cells forming colonies in plates that were not treated with drug.

Take `NC1CCCCC1N.O=P([O-])(O)OP(=O)([O-])O.[Pt+2]` [dach-2, (Trans-1,2-cyclohexanediamine)(dihydrogenpyrophosphato)platinum(II)]: the IC50 in test [1] was 35 ± 5 µM; in test [5] (72 hours growth, read-out: IC50 for UMSCC10b/15s (Cisplatin-resistant)), 5 µM; in test [5] (FIG. 9 legend, read-out: IC50 cisplatin-resistant head and neck cancer cells), below 5 µM; in [9], 48 ± 5 µM. In addition, the “DNA binding, 25-mer oligonucleotide” value in test [2] was “does not exhibit any measurable DNA binding”. For the same compound, the “guanine base binding (H8 signal)” value in test [3] was “exhibits a signal for the free guanine base at 8.05 ppm”. Besides, the “adduct formation with nucleotides” value in test [4] is “no detectable NMR signals”. Moreover, the BAX overexpression in test [6] is given as 2-3 folds. Moreover, the DNA-bound platinum result in test [7] is listed as “No DNA-bound platinum was detected”. For the same compound, the BAK1 overexpression in test [8] is 2-3 folds.
